Patent publication US11377632B2, “Production method for bacterial cells” (IDEMITSU KOSAN CO., LTD., priority 2017, dated 2022)

Tested on: Bacillus subtilis ITB 105 strain (NITE BP-01727)
Experiment: Three-stage liquid culture with streptomycin added; colony count (CFU) and abnormal colony morphology on agar
Type: cell-based
Conditions: for Appearance (%) of abnormal colonies / CFU / Number of abnormal colonies / Number of normal colonies: third stage, 30 hour
Protocol: Using a 500 mL Erlenmeyer flask (with a baffle), 100 mL each of liquid medium containing the components of the medium listed in Table 1 was prepared, and then autoclave sterilization was performed. In order to avoid the Maillard reaction, glucose was separately sterilized and mixed aseptically.
The test sections were set as described in Table 2. According to the conditions for each test section, an aqueous solution of filter-sterilized streptomycin was aseptically added to the medium.
One platinum loop was taken from a colony of Bacillus subtilis ITB 105 strain (NITE BP-01727) grown on a common agar medium and inoculated, and then shake culture was performed at 30° C. and 150 rpm (first stage). Eighteen hours later, 1 mL of each culture solution was aliquoted and transferred to a fresh medium, and then shaking culture was performed in the same manner (second stage). After 24 hours, 1 mL of each culture solution was aliquoted and then transferred to a fresh medium, and then shaking culture was performed in the same manner (third stage). The third-stage culture solution was sampled after 30 hours.
The resulting culture solutions were each diluted 1×10^7 folds with sterile water, and 100 μL of the diluted solution was applied to a common agar medium and then cells were cultured overnight at 37° C. The number of colonies that had appeared was determined to calculate CFU. Colonies that had appeared and clearly differed in colony morphology compared with the parent strain on the basis of the criteria in Table 3 were determined as abnormal colonies and the number of the abnormal appearing colonies was determined and then the proportion thereof in the total number of colonies was calculated. As a result, in the three-stage culture, abnormal appearing colonies accounted for about 5% when no antibiotic was added.

[1] = Test section No. 2: streptomycin 5 ppm in first and second stage, none in third
[2] = Test section No. 3: streptomycin 10 ppm in first and second stage, none in third
[3] = Test section No. 4: streptomycin 15 ppm in first and second stage, none in third
[4] = Test section No. 5: streptomycin 20 ppm in first and second stage, none in third
[5] = Test section No. 6: streptomycin 30 ppm in first and second stage, none in third
[6] = Test section No. 7: streptomycin 30 ppm in first, second and third stage
[7] = streptomycin added in all of the first, second and third stages

[H]/N=C(/N)N[C@H]1[C@H](O)[C@@H](O)[C@H](O[C@@H]2O[C@@H](C)[C@](O)(C=O)[C@H]2O[C@@H]2O[C@@H](CO)[C@H](O)[C@@H](O)[C@@H]2NC)[C@@H](N/C(N)=N\[H])[C@@H]1O [Streptomycin, streptomycin]
Appearance (%) of abnormal colonies [1]: 0.0% | CFU [1]: 8.8e+09 mL⁻¹ | Number of abnormal colonies [1]: 0 | Number of normal colonies [1]: 88 | Appearance (%) of abnormal colonies [2]: 0.0% | CFU [2]: 1.09e+10 mL⁻¹ | Number of abnormal colonies [2]: 0 | Number of normal colonies [2]: 109 | Appearance (%) of abnormal colonies [3]: 0.0% | CFU [3]: 7e+09 mL⁻¹ | Number of abnormal colonies [3]: 0 | Number of normal colonies [3]: 70 | Appearance (%) of abnormal colonies [4]: 0.0% | CFU [4]: 8.2e+09 mL⁻¹ | Number of abnormal colonies [4]: 0 | Number of normal colonies [4]: 82 | Appearance (%) of abnormal colonies [5]: 0.0% | CFU [5]: 6.3e+09 mL⁻¹ | Number of abnormal colonies [5]: 0 | Number of normal colonies [5]: 63 | Appearance (%) of abnormal colonies [6]: 0.0% | CFU [6]: 4.9e+09 mL⁻¹ | Number of abnormal colonies [6]: 0 | Number of normal colonies [6]: 49 | Appearance of abnormal colonies [7]: no abnormal colony appeared | Number of appearing colonies and number of normal appearing colonies [7]: low | Productivity of bacterial cells (streptomycin added in all of the first, second and third stages, compared with Test section Nos. 2 to 6): lower than those of Test section Nos. 2 to 6 | Appearance of abnormal colonies (streptomycin added in the first and second stages, none in the third stage): no appearance of abnormal colonies was observed
